Data as given in PubChem BioAssay AID1963871 (Molecular Pharmacology Branch, DTP, NCI, 2024).

Test system: KRAS-mutant PDC multicell tumor spheroid viability
Assay: Anticancer human tumor 521955-158-R2-J5-PDC patient-derived pancreatic carcinoma cell line growth inhibition [KRAS2]
Conditions: for IC50: curve of first compound; for viability, T/C: stronger effect = lower value
Summary of the method: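 Combination screen of spheroid viability in tumor-cell co-cultures with endothelial (HUVEC) and mesenchymal stem cell stroma. Each agent was tested in half-log dilutions, topping at clinical Cmax or at 10 microM without a known Cmax.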

[1] = second compound 0.0316 µM, first compound 0.01 µM
[2] = second compound 0.0316 µM, first compound 0.0316 µM
[3] = second compound 0.0316 µM, first compound 0.1 µM
[4] = second compound 0.0316 µM, first compound 0.316 µM
[5] = second compound 0.0316 µM, first compound 1 µM
[6] = second compound 0.0316 µM, first compound 3.16 µM
[7] = second compound 0.1 µM, first compound 0.01 µM
[8] = second compound 0.1 µM, first compound 0.0316 µM
[9] = second compound 0.1 µM, first compound 0.1 µM
[10] = second compound 0.1 µM, first compound 0.316 µM
[11] = second compound 0.1 µM, first compound 1 µM
[12] = second compound 0.1 µM, first compound 3.16 µM
[13] = second compound 0.316 µM, first compound 0.01 µM
[14] = second compound 0.316 µM, first compound 0.0316 µM
[15] = second compound 0.316 µM, first compound 0.1 µM
[16] = second compound 0.316 µM, first compound 0.316 µM
[17] = second compound 0.316 µM, first compound 1 µM
[18] = second compound 0.316 µM, first compound 3.16 µM
[19] = second compound 1 µM, first compound 0.01 µM
[20] = second compound 1 µM, first compound 0.0316 µM
[21] = second compound 1 µM, first compound 0.1 µM
[22] = second compound 1 µM, first compound 0.316 µM
[23] = second compound 1 µM, first compound 1 µM
[24] = second compound 1 µM, first compound 3.16 µM
[25] = second compound 3.16 µM, first compound 0.01 µM
[26] = second compound 3.16 µM, first compound 0.0316 µM
[27] = second compound 3.16 µM, first compound 0.1 µM
[28] = second compound 3.16 µM, first compound 0.316 µM
[29] = second compound 3.16 µM, first compound 1 µM
[30] = second compound 3.16 µM, first compound 3.16 µM
[31] = second compound 0.0316 µM, first compound 10 µM
[32] = second compound 0.1 µM, first compound 10 µM
[33] = second compound 0.316 µM, first compound 10 µM
[34] = second compound 1 µM, first compound 10 µM
[35] = second compound 3.16 µM, first compound 10 µM
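Note: viability read after seven days of drug exposure.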

SMILES	IC50 (second compound 0.0316 µM) [µM]	IC50 (second compound 0.1 µM) [µM]	IC50 (second compound 0.316 µM) [µM]	IC50 (second compound 1 µM) [µM]	IC50 (second compound 3.16 µM) [µM]	viability, T/C [2] [%]	viability, T/C [3] [%]	viability, T/C [4] [%]	viability, T/C [5] [%]	viability, T/C [6] [%]	viability, T/C [8] [%]	viability, T/C [9] [%]	viability, T/C [10] [%]	viability, T/C [11] [%]	viability, T/C [14] [%]	viability, T/C [15] [%]	viability, T/C [20] [%]	viability, T/C [21] [%]	viability, T/C [26] [%]	viability, T/C [27] [%]	other results
CC(=O)OC12COC1CC(O)C1(C)C(=O)C(O)C3=C(C)C(OC(=O)C(O)C(NC(=O)OC(C)(C)C)c4ccccc4)CC(O)(C(OC(=O)c4ccccc4)C21)C3(C)C (stereo not given) + C=CC(=O)N1CCN(c2nc(OCC3CCCN3C)nc3c2CCN(c2cccc4cccc(C)c24)C3)CC1CC#N	< 0.01	< 0.01	< 0.01	< 0.01	< 0.01	15.8	12.7	15.2	15.4	20.6	16.3	12.6	12.7	15.1	10	9.97	13.2	10	15.5	15.3	viability, T/C [1]: 21.3%; viability, T/C [7]: 19.4%; viability, T/C [12]: 18.3%; viability, T/C [13]: 19.3%; viability, T/C [16]: 11.8%; viability, T/C [17]: 17.3%; viability, T/C [18]: 19.8%; viability, T/C [19]: 18.9%; viability, T/C [22]: 9.11%; viability, T/C [23]: 11.5%; viability, T/C [24]: 14.3%; viability, T/C [25]: 22.1%; viability, T/C [28]: 15.8%; viability, T/C [29]: 16.9%; viability, T/C [30]: 21.8%
CN(C)C/C=C/C(=O)Nc1cc2c(Nc3ccc(F)c(Cl)c3)ncnc2cc1O[C@H]1CCOC1 + C=CC(=O)N1CCN(c2nc(OCC3CCCN3C)nc3c2CCN(c2cccc4cccc(C)c24)C3)CC1CC#N	> 0.1	> 0.1	> 0.1	> 0.1	< 0.000316	67.9	65.6	–	–	–	76.7	72.4	–	–	54.7	53.6	58.8	54.4	0.96	0.29	viability, T/C (second compound 0.0316 µM, first compound 0.000316 µM): 97.5%; viability, T/C (second compound 0.0316 µM, first compound 0.001 µM): 104%; viability, T/C (second compound 0.0316 µM, first compound 0.00316 µM): 75.7%; viability, T/C [1]: 73.5%; viability, T/C (second compound 0.1 µM, first compound 0.000316 µM): 83.5%; viability, T/C (second compound 0.1 µM, first compound 0.001 µM): 89.3%; viability, T/C (second compound 0.1 µM, first compound 0.00316 µM): 98.8%; viability, T/C [7]: 70.5%; viability, T/C (second compound 0.316 µM, first compound 0.000316 µM): 77.8%; viability, T/C (second compound 0.316 µM, first compound 0.001 µM): 73.2%; viability, T/C (second compound 0.316 µM, first compound 0.00316 µM): 65.9%; viability, T/C [13]: 56.7%; viability, T/C (second compound 1 µM, first compound 0.000316 µM): 73.5%; viability, T/C (second compound 1 µM, first compound 0.001 µM): 85.1%; viability, T/C (second compound 1 µM, first compound 0.00316 µM): 70.4%; viability, T/C [19]: 65.1%; viability, T/C (second compound 3.16 µM, first compound 0.000316 µM): 4.17%; viability, T/C (second compound 3.16 µM, first compound 0.001 µM): 3.27%; viability, T/C (second compound 3.16 µM, first compound 0.00316 µM): 1.28%; viability, T/C [25]: 1.27%
COC(=O)c1ccc2c(C(=Nc3ccc(N(C)C(=O)CN4CCN(C)CC4)cc3)c3ccccc3)c(O)[nH]c2c1 + C=CC(=O)N1CCN(c2nc(OCC3CCCN3C)nc3c2CCN(c2cccc4cccc(C)c24)C3)CC1CC#N	1.16	0.864	0.28	< 0.0316	< 0.0316	78	67.5	75.1	55.9	9.24	64.2	69.8	65.2	47.7	72.1	69.5	49.4	50.6	1.66	0.72	viability, T/C [31]: 0.33%; viability, T/C [12]: 8.93%; viability, T/C [32]: 0.33%; viability, T/C [16]: 43.7%; viability, T/C [17]: 28.6%; viability, T/C [18]: 2.62%; viability, T/C [33]: 1.9%; viability, T/C [22]: 37.3%; viability, T/C [23]: 26.4%; viability, T/C [24]: 1.74%; viability, T/C [34]: 0.25%; viability, T/C [28]: 0.77%; viability, T/C [29]: 0.34%; viability, T/C [30]: 0.55%; viability, T/C [35]: 0.44%
O=C(c1cc(Cc2n[nH]c(=O)c3ccccc23)ccc1F)N1CCN(C(=O)C2CC2)CC1 + C=CC(=O)N1CCN(c2nc(OCC3CCCN3C)nc3c2CCN(c2cccc4cccc(C)c24)C3)CC1CC#N	> 10	> 10	> 10	6.45	< 0.0316	104	101	99.4	85.1	80.2	95.2	94.9	93.7	92.2	94.2	92.8	100	101	4.24	1.68	viability, T/C [31]: 61.3%; viability, T/C [12]: 78.5%; viability, T/C [32]: 54%; viability, T/C [16]: 84.8%; viability, T/C [17]: 82.9%; viability, T/C [18]: 78.3%; viability, T/C [33]: 59.1%; viability, T/C [22]: 85%; viability, T/C [23]: 73.3%; viability, T/C [24]: 70%; viability, T/C [34]: 39.5%; viability, T/C [28]: 1.74%; viability, T/C [29]: 1.67%; viability, T/C [30]: 2.07%; viability, T/C [35]: 0.32%
